Consider 10 compounds from patent publication US8637513B2, “Heterocycle phenyl amide T-type calcium channel antagonists” (Merck Sharp & Dohme Corp., priority 2007, dated 2014).

In the assay the target is T1, T-type channel alpha1I (CaV 3.3) (Homo sapiens, UniProt Q9P0X4).
T1 construct: expressed in transfected cells; host or cells: HEK 293 cells, tetracycline-inducible expression
T1 sequence (Q9P0X4 whole entry): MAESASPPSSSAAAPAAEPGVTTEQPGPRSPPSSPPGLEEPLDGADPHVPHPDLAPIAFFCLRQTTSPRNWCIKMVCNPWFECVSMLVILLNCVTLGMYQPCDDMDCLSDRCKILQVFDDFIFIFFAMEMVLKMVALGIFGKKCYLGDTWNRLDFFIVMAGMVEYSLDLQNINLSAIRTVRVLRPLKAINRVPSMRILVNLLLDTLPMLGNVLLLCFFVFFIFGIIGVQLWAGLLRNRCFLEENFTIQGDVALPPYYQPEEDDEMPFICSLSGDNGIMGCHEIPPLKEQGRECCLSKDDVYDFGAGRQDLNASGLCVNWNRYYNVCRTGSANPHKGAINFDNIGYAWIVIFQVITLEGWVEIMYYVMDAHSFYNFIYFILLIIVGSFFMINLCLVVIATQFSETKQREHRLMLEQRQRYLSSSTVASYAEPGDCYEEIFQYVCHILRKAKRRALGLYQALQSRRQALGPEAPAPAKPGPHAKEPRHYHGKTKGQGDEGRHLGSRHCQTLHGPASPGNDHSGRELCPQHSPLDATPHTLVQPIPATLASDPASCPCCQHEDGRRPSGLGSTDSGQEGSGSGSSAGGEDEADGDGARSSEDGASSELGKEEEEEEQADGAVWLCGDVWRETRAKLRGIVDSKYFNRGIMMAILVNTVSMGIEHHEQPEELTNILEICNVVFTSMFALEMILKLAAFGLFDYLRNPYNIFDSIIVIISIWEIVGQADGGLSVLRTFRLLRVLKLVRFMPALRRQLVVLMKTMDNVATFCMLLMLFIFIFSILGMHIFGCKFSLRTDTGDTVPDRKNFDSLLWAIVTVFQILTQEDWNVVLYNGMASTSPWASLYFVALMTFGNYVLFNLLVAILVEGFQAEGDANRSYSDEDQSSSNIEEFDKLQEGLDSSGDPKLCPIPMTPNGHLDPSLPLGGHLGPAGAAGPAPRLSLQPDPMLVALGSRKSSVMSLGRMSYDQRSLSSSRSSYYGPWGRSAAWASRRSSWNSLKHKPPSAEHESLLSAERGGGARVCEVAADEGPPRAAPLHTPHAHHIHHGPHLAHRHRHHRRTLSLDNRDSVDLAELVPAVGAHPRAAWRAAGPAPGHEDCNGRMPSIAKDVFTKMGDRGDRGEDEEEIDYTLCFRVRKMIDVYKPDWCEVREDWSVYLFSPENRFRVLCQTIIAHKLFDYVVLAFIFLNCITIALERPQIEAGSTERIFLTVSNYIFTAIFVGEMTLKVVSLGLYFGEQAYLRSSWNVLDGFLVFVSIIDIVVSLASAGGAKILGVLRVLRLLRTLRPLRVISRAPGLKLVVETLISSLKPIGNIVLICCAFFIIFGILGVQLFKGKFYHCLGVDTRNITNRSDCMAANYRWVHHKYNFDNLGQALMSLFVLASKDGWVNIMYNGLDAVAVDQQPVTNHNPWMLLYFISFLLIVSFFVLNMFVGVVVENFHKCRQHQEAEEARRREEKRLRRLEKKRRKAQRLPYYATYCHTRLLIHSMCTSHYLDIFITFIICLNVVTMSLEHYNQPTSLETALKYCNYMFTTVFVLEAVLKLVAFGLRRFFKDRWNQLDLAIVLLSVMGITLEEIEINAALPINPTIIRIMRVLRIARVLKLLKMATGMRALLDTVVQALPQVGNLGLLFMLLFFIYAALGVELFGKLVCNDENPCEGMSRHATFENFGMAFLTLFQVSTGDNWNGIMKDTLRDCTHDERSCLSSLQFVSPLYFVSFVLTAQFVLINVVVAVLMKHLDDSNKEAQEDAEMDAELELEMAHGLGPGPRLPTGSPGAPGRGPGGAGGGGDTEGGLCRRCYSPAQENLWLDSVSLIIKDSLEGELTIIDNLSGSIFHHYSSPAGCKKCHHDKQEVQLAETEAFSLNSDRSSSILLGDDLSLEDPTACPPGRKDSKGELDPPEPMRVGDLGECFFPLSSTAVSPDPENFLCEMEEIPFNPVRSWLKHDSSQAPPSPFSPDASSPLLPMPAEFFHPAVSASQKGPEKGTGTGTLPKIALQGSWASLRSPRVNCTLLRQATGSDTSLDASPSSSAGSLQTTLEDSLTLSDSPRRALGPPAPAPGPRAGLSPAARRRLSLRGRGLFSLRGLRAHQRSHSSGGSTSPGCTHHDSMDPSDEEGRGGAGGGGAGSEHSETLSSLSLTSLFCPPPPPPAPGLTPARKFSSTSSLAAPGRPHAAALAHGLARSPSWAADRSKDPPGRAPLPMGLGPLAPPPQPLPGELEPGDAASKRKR
In words: FLIPR Ca2+ Flux Assay. The assay is classed as cell-based. Particulars: alpha1I subtype; read-out: FLIPR alpha1I IP.
Consider `C[C@@H](NC(=O)Cc1ccc(-c2cccc3cncnc23)cc1)c1ccc(OCC(F)(F)F)cn1` [Example 1, 2-(4-Quinazolin-8-ylphenyl)-N-{(1R)-1-[5-(2,2,2-trifluoroethoxy)pyridin-2-yl]ethyl}acetamide], for which the IC50 is 19 nM. As to `Cc1nccnc1-c1ccc(CC(=O)N[C@H](C)c2ccc(OCC(F)(F)F)cn2)cc1` [Example 2, 2-[4-(3-methylpyrazin-2-yl)phenyl]-N-{(1R)-1-[5-(2,2,2-trifluoroethoxy)pyridin-2-yl]ethyl}acetamide], the IC50 came out at 24 nM. As to `C[C@@H](NC(=O)Cc1ccc(-c2cc3ccccc3n2C)cc1)c1ccc(OCC(F)(F)F)cn1` [Example 3, 2-[4-(1-Methyl-1H-indol-2-yl)phenyl]-N-{(1R)-1-[5-(2,2,2-trifluoroethoxy)pyridin-2-yl]ethyl}acetamide], the IC50 amounted to 36 nM. Turning to `C[C@@H](NC(=O)Cc1ccc(-c2cnn3ncccc23)cc1)c1ccc(OCC(F)(F)F)cn1` [Example 4, 2-(4-Pyrazolo[1,5-b]pyridazin-3-ylphenyl)-N-{(1R)-1-[5-(2,2,2-trifluoroethoxy)pyridin-2-yl]ethyl}acetamide], the IC50 worked out at 5 nM. As for `C[C@@H](NC(=O)Cc1ccc(-c2cnccn2)cc1)c1ccc(OCC(F)(F)F)cn1` [Example 5, 2-(4-Pyrazin-2-ylphenyl)-N-{(1R)-1-[5-(2,2,2-trifluoroethoxy)pyridin-2-yl]ethyl}acetamide], the IC50 turned out to be 30 nM. With `C[C@@H](NC(=O)Cc1ccc(-c2nccnc2C2CC2)cc1)c1ccc(OCC(F)(F)F)cn1` [Example 6, 2-[4-(3-Cyclopropylpyrazin-2-yl)phenyl]-N-{(1R)-1-[5-(2,2,2-trifluoroethoxy)pyridin-2-yl]ethyl}acetamide], the IC50 was found to be 47 nM. As to `CC1=NOC(C)(c2ccc(CC(=O)N[C@H](C)c3ccc(OCC(F)(F)F)cn3)cc2)C1` (stereo partly drawn) [Example 7, 2-[4-(3,5-Dimethyl-4,5-dihydro-isoxazol-5-yl)phenyl]-N-{(1R)-1-[5-(2,2,2-trifluoroethoxy)pyridin-2-yl]ethyl}acetamide], the IC50 is 41 nM. For `C[C@@H](NC(=O)Cc1ccc(OC2CCOC2)cc1)c1ccc(OCC(F)(F)F)cn1` (stereo partly shown) [Example 8], the IC50 worked out at 91 nM. With `C[C@@H](NC(=O)Cc1ccc(Oc2nccs2)cc1)c1ccc(OCC(F)(F)F)cn1` [Example 9], the IC50 is 46 nM. As for `C[C@@H](NC(=O)Cc1ccc(-n2nc(C3CC3)c3ccccc32)cc1)c1ccc(OCC(F)(F)F)cn1` [Example 10], the IC50 was 73 nM.
